Measured values: ChEMBL document CHEMBL1201862, “PubChem BioAssay data set” (2004)
The source made the active and inactive calls.

What was measured:
A-375 [1] = test: MITF: Counter assay: A375 proliferation Measured in Cell-Based System Using Plate Reader - 2084-03_Inhibitor_Dose_DryPowder_Activity. [Related pubchem assays (depositor defined):AID488944]; type: functional; settings: Homo sapiens
A-375 [2] = test: A375 melanoma cell viability reduction, dose response, counter-screen for MITF modulator project, cherry-pick samples, set 2 (AID 540335); type: functional, cell-based; settings: Homo sapiens
[3] = target: T1, Ubiquitin-conjugating enzyme E2 N (Homo sapiens, UniProt P61088); type: functional;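 also: Dose-response confirmation in a TR-FRET assay detecting UBC13-driven polyubiquitin chain formation, inhibition measured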
T1 sequence (P61088 whole entry): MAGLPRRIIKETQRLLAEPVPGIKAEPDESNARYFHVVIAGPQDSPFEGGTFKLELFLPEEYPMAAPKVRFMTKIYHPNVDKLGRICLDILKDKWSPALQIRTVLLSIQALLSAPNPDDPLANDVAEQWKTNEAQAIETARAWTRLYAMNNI

Hexokinase-1 = target: T2, Hexokinase-1 (Homo sapiens, UniProt P19367); test: SAR analysis of small molecule inhibitors of hexokinase domain containing I (HKDC1) in the hexokinase 1 selectivity assay. [Related pubchem assays (depositor defined):AID493160, AID493190]; type: functional
T2 sequence (P19367 whole entry): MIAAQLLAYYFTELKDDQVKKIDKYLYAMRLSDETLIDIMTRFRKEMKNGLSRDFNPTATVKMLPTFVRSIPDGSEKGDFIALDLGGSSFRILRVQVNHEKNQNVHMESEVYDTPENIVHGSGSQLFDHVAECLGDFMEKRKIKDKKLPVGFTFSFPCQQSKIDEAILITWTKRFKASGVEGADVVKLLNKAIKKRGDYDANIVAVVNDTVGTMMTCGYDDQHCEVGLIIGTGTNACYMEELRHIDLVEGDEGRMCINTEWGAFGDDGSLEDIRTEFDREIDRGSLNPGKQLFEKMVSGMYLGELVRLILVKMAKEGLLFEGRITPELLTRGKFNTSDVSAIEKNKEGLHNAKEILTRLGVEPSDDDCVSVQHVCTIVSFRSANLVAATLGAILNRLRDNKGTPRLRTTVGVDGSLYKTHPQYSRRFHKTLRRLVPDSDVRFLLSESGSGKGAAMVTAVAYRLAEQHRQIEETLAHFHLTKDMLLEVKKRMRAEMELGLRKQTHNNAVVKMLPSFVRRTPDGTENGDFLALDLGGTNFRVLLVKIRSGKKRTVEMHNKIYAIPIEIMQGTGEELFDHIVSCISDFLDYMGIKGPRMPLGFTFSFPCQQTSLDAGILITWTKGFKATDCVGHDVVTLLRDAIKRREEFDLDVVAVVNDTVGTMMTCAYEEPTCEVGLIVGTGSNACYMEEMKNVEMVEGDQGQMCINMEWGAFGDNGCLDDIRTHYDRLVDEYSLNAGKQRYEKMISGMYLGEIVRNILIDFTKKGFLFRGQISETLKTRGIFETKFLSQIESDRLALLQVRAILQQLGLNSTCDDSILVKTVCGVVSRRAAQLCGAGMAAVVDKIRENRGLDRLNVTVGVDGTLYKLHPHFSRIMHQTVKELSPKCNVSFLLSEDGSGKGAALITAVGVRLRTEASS

Hexokinase HKDC1 = target: T3, Hexokinase HKDC1 (Homo sapiens, UniProt Q2TB90); test: SAR analysis of small molecule inhibitors of hexokinase domain containing I (HKDC1). [Related pubchem assays (depositor defined):AID493160, AID493190]; type: functional
T3 sequence (Q2TB90 whole entry): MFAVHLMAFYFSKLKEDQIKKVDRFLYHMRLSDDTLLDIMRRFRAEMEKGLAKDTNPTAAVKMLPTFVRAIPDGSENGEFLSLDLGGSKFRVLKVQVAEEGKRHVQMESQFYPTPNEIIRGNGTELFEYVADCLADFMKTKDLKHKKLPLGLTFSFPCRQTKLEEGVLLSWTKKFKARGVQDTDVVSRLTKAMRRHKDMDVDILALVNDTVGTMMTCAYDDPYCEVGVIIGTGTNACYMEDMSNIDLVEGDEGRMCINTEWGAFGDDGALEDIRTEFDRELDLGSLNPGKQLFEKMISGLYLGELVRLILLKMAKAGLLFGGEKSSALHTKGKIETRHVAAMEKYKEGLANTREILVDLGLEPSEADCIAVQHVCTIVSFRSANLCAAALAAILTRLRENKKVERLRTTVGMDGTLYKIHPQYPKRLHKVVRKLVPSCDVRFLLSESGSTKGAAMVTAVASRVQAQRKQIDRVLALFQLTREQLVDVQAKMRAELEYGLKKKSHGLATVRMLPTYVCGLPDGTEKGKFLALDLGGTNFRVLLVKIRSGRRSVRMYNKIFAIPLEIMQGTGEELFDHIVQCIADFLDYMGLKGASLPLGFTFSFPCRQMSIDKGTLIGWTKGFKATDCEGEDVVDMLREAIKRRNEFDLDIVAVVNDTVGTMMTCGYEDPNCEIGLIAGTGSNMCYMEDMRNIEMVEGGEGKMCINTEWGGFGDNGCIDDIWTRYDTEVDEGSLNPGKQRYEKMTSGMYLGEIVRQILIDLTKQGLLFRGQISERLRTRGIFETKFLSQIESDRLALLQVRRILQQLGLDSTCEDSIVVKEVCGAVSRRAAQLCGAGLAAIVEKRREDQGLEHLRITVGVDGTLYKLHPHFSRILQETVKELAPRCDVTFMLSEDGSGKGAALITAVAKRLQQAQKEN

Beta-galactosidase = Beta-galactosidase (Escherichia coli, UniProt Q8VNN2); test: PubChem AID 485352; type: functional
Chain of Beta-galactosidase (Q8VNN2 whole entry): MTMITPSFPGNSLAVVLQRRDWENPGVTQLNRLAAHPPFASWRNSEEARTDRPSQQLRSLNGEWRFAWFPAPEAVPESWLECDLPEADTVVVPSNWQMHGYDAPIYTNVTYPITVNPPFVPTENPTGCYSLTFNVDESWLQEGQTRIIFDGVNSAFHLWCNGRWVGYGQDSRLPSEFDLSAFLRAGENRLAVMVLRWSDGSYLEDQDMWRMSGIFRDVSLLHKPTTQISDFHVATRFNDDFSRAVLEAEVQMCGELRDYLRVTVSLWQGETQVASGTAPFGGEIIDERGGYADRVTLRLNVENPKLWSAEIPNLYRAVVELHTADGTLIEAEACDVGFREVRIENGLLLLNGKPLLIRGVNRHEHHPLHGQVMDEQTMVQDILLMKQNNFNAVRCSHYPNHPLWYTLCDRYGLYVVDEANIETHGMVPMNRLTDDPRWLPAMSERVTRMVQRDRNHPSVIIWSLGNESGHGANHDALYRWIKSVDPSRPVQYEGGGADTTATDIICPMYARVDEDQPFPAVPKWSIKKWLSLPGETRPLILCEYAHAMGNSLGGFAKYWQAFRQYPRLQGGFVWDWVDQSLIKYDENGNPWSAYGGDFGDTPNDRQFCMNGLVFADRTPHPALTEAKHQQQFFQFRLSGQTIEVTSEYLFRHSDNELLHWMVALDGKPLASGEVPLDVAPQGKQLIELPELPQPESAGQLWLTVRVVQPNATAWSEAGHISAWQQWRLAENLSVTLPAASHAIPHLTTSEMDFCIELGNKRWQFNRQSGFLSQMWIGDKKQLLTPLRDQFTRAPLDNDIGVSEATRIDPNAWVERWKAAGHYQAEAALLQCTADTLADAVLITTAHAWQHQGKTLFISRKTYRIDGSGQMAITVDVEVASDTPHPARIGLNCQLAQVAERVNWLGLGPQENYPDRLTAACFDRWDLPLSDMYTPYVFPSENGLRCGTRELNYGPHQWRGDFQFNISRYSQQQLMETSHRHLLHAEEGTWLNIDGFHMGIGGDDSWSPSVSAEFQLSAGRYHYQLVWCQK

[4] = inhibitors of intracellular T. cruzi replication, confirmation, NIH3T3 host cells, beta-gal luminescence (AID 2044); type: functional, cell-based;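 also: intracellular parasites grown in NIH/3T3 mouse fibroblasts as host cells; luminescent beta-galactosidase reporter signal from transgenic T. cruzi replicating inside host cells; inhibitors lower the luminescence signal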
[5] = target: Type-1 angiotensin II receptor (Homo sapiens, UniProt P30556); test: AT1 receptor antagonists, dose response, selectivity assay for APJ receptor antagonist project, cell-based, uHTS hits (AID 463214); type: functional;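 also: antagonist potency against angiotensin II stimulated AT1 response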
Chain of Type-1 angiotensin II receptor (P30556 whole entry): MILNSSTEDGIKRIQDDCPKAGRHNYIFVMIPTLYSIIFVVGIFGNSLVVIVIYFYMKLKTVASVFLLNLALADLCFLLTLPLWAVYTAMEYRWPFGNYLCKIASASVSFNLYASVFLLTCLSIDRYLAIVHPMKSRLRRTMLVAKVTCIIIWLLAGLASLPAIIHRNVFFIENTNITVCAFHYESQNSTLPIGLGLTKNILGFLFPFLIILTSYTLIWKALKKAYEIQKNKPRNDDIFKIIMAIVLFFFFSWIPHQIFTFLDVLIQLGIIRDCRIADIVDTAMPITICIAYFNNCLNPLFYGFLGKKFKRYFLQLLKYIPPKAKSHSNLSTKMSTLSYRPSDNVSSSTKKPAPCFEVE

[6] = cytotoxicity toward NIH3T3 fibroblasts, dose response, counter-screen, cell-based, ATP luminescence, mouse fibroblasts (AID 2010); type: functional;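 also: cells exposed to compound for about 90 hours before reading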
[7] = target: T4, Heat shock factor protein 1 (Mus musculus, UniProt P38532); test: HSF1 potentiators in luciferase reporter cells, confirmation, cell-based, NIH3T3, luminescence, dose retest (AID 435004); type: functional;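 also: stress induced by proteasome inhibitor MG132 added 30 min after compound; luciferase reporter driven by HSF1 response element in NIH3T3 cells; actives raise luminescence as potentiators of the MG132 stress response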
T4 sequence (P38532 whole entry): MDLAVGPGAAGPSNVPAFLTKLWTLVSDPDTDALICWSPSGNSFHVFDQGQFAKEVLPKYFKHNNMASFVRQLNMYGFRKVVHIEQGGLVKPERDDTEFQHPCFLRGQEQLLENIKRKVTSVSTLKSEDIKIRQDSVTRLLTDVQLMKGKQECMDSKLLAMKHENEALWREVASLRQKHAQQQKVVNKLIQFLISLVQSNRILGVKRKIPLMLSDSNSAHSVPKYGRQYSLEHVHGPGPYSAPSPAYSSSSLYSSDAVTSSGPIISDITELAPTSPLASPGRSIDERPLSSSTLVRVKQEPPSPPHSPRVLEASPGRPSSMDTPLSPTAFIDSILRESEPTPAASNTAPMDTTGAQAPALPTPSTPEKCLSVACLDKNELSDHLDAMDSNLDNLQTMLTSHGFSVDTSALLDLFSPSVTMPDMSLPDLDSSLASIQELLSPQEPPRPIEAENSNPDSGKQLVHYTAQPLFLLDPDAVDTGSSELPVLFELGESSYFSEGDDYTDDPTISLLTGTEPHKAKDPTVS

[8] = HepG2 cell cytotoxicity, dose response, cytotoxicity control, ATP luminescence, cherry-pick, activator set 2 (AID 1053143); type: functional, cell-based
[9] = M. tuberculosis H37Rv growth inhibitors, H37Rv strain (AID 1626); type: functional
[10] = growth suppression of PTEN-null colon cells, dose response, cell-based, HCT116 PTEN knockout (AID 1047); type: functional;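 also: HCT116 colon tumor cells with PTEN knocked out; cells exposed to compound for 60 hours before readout; potency for loss of cell viability measured by luminescence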
[11] = growth suppression of beta-catenin-knockout colon cells, dose response, cell-based, HCT116, human colon tumor (AID 1045); type: functional;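 also: HCT116 colon tumor cells with beta catenin knocked out; cells exposed to compound for 60 hours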
[12] = THP-1 cell cytotoxicity, dose response, cytotoxicity control for non-replicating M. tuberculosis project (AID 489025); type: functional
[13] = Luminescence Cell-Based Dose Retest to Confirm Inhibitors of Cancer Stem Cells. [Related pubchem assays (depositor defined):AID2717, AID2721]; type: functional; settings: Homo sapiens
[14] = HepG2 cell cytotoxicity, dose response, cytotoxicity control for non-replicating M. tuberculosis project (AID 489018); type: functional; settings: Mycobacterium tuberculosis
[15] = Vero E6 cell cytotoxicity, dose response, cytotoxicity control for non-replicating M. tuberculosis project, secondary assay (AID 492998); type: functional, VeroE6; settings: Vero C1008
[16] = target: T5, Microphthalmia-associated transcription factor (Homo sapiens, UniProt O75030); test: TRPM1 promoter luciferase signal decrease, dose response, MITF inhibitor project, cell-based, SK-MEL-5, cherry-picked, set 3 (AID 493073); type: functional
T5 sequence (O75030 whole entry): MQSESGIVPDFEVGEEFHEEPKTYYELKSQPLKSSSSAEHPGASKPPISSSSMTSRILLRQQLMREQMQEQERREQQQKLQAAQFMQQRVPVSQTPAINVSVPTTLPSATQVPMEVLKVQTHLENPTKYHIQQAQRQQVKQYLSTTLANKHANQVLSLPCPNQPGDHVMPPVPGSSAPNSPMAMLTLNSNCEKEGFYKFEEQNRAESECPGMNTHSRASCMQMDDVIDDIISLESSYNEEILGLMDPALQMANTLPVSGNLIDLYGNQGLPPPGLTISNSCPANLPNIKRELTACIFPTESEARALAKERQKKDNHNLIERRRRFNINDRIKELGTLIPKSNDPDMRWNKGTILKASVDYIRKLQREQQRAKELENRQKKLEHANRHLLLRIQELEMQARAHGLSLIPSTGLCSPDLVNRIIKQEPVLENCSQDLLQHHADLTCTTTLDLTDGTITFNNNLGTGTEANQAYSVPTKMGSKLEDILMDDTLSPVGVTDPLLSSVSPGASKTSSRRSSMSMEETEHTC

cells = type: functional
INS1 = test: beta cell apoptosis inhibitors, cytokine rescue, dose response, luminescence, retest (AID 449756); type: functional, cell-based; settings: Rattus norvegicus, INS1;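 also: cell death triggered by IL-1 beta plus TNF-alpha plus IFN-gamma mixture; protective hits raise ATP signal compared with cytokine alone wells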

C#Cc1cccc(NC(=O)CSc2nnc(-c3ccc(C(F)(F)F)cn3)o2)c1
AC50 (A-375 [1]): > 11 µM (active) | AC50 (A-375 [2]): > 11 µM (active)

COc1ccc(C[C@H]2CN3C(=NC[C@@H]3C(C)C)N2CCNC(=O)c2ccc(C)c(Br)c2)cc1
IC50 [3]: > 20 µM (inactive) | AC50 (A-375 [2]): 34.3 µM (active)

O=c1c2ccccc2nc(/C=C/c2ccc(Br)cc2)n1Cc1ccccc1
IC50 (Hexokinase-1): > 80 µM (inactive) | IC50 (Hexokinase HKDC1): > 80 µM (inactive)

Cc1ccc(C(=O)Nc2nnc(SCc3ccc(C#N)cc3)s2)cc1
IC50 (Hexokinase-1): > 80 µM (inactive) | IC50 (Hexokinase HKDC1): > 80 µM (inactive)

CCOc1cccc(/C=C/c2ccc3cccc(O)c3n2)c1OC
EC50 (Beta-galactosidase): > 40 µM (inactive) | EC50 [4]: 2.48 µM (active) | IC50 [5]: 16.6 µM (active) | EC50 [6]: 4.48 µM (active) | EC50 [7]: 27.7 µM (active) | AC50 [8]: 26 µM (active)

Cc1ccc(C(=O)CNc2ccc(C)c(Cl)c2)cc1
EC50 (Beta-galactosidase): > 40 µM (inactive) | IC50 [9]: > 100 µM (active) | IC50 [5]: 5.43 µM (active)

COc1cc(CNC2CCCC2)cc(Cl)c1OCc1ccccc1Cl
EC50 [4]: 1.17 µM (active) | EC50 [10]: 14.6 µM (active) | EC50 [6]: 13.8 µM (active) | EC50 [11]: 12.1 µM (active) | CC50 [12]: 18.3 µM (active) | AC50 [13]: 5.89 µM (active) | CC50 [14]: 19.1 µM (active) | CC50 [15]: > 20 µM (active) | AC50 [16]: 17.7 µM (active) | IC50 (cells): 16.8 µM (active) | AC50 (A-375 [1]): 17.5 µM (active) | AC50 (INS1): 7.36 µM (active)
